Each block holds one molecule with its values, some of them ahead of it.
Key:
Type in all cases: functional, cell-based
[1] = molecular target: T1, Multidrug resistance-associated protein 1 (Homo sapiens, UniProt P33527); test: TP_TRANSPORTER: increase in Daunomycin intracellular accumulation (Daunomycin: 0.05 uM, Chrysin: 100 uM) in Panc-1 cells; conditions: panc-1, 100 µM
[2] = molecular target: T1, Multidrug resistance-associated protein 1; test: TP_TRANSPORTER: increase in Vinblastine intracellular accumulation (Vinblastine: 0.05 uM, Chrysin: 100 uM) in Panc-1 cells; conditions: panc-1, 100 µM
[3] = molecular target: T1, Multidrug resistance-associated protein 1; test: TP_TRANSPORTER: increase in Daunomycin intracellular accumulation (Daunomycin: 0.05 uM, Genistein: 100 uM) in Panc-1 cells; conditions: panc-1, 100 µM
[4] = molecular target: T1, Multidrug resistance-associated protein 1; test: TP_TRANSPORTER: increase in Vinblastine intracellular accumulation (Vinblastine: 0.05 uM, Genistein: 100 uM) in Panc-1 cells; conditions: panc-1, 100 µM
[5] = molecular target: T1, Multidrug resistance-associated protein 1; test: TP_TRANSPORTER: increase in Vinblastine intracellular accumulation (Vinblastine: 0.05 uM, Morin: 100 uM) in Panc-1 cells; conditions: panc-1, 100 µM
[6] = molecular target: T1, Multidrug resistance-associated protein 1; test: TP_TRANSPORTER: increase in Daunomycin intracellular accumulation (Daunomycin: 0.05 uM, Morin: 100 uM) in Panc-1 cells; conditions: panc-1, 100 µM
[7] = molecular target: T1, Multidrug resistance-associated protein 1; test: TP_TRANSPORTER: increase in Vinblastine intracellular accumulation (Vinblastine: 0.05 uM, Silymarin: 100 uM) in Panc-1 cells; conditions: panc-1, 100 µM
[8] = molecular target: T1, Multidrug resistance-associated protein 1; test: TP_TRANSPORTER: increase in Daunomycin intracellular accumulation (Daunomycin: 0.05 uM, Silymarin: 100 uM) in Panc-1 cells; conditions: panc-1, 100 µM
[9] = molecular target: T1, Multidrug resistance-associated protein 1; test: TP_TRANSPORTER: increase in Daunomycin intracellular accumulation (Daunomycin: 0.05 uM, Phloretin: 100 uM) in PANC-1 cells; conditions: panc-1, 100 µM
[10] = molecular target: T1, Multidrug resistance-associated protein 1; test: TP_TRANSPORTER: increase in Vinblastine intracellular accumulation (Vinblastine: 0.05 uM, Phloretin: 100 uM) in PANC-1 cells; conditions: panc-1, 100 µM
[11] = molecular target: T1, Multidrug resistance-associated protein 1; test: TP_TRANSPORTER: increase in Vinblastine intracellular accumulation (Vinblastine: 0.05 uM, BiochaninA: 101 uM) in Panc-1 cells; conditions: panc-1, 101 µM
[12] = molecular target: T1, Multidrug resistance-associated protein 1; test: TP_TRANSPORTER: increase in Daunomycin intracellular accumulation (Daunomycin: 0.05 uM, BiochaninA: 100 uM) in Panc-1 cells; conditions: panc-1, 100 µM

T1 sequence (P33527 whole entry): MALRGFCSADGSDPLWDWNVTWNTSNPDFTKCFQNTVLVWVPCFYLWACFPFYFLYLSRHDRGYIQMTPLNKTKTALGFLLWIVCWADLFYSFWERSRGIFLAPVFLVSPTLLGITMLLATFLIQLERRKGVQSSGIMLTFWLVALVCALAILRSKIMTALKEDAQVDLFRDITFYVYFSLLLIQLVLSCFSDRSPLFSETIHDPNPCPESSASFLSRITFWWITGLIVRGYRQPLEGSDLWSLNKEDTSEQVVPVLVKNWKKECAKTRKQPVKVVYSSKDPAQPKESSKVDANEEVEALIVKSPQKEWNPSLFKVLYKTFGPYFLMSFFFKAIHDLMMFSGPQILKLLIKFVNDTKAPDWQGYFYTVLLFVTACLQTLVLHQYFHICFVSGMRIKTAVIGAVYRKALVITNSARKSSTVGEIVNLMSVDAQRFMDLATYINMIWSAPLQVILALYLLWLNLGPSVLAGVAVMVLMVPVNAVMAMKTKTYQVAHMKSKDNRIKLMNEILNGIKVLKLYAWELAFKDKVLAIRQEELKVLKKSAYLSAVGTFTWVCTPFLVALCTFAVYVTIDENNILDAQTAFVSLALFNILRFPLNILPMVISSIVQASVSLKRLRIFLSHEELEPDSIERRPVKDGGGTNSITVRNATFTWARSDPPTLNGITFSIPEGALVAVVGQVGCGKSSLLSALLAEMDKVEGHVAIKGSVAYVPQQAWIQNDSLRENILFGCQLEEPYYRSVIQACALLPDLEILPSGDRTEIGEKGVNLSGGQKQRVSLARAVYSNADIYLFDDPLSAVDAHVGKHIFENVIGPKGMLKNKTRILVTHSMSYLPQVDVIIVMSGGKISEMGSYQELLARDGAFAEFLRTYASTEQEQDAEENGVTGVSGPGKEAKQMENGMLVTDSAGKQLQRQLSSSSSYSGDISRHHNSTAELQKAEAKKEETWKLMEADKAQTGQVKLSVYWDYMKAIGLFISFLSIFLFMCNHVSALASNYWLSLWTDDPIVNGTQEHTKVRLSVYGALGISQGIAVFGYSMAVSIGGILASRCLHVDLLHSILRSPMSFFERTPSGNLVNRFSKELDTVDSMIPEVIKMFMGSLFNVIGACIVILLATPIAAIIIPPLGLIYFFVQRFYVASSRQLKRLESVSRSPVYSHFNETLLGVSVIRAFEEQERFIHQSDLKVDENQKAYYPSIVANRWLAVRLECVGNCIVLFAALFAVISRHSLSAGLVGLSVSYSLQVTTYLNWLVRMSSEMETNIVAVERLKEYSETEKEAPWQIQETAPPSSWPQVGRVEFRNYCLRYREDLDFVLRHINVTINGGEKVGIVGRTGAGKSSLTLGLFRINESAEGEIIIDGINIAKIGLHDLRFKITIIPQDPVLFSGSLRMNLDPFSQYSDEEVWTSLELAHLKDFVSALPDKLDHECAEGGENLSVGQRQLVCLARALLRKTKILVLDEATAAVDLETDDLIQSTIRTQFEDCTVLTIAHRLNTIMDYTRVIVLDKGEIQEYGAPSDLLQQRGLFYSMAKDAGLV

Activity [1]: 198%
Activity [2]: 180%
Molecule: O=c1cc(-c2ccccc2)oc2cc(O)cc(O)c12 [CHRYSIN]

Activity [3]: 156%
Activity [4]: 191%
Molecule: O=c1c(-c2ccc(O)cc2)coc2cc(O)cc(O)c12 [GENISTEIN]

Activity [5]: 553%
Activity [6]: 546%
Molecule: O=c1c(O)c(-c2ccc(O)cc2O)oc2cc(O)cc(O)c12 [MORIN]

Activity [7]: 329%
Activity [8]: 305%
Molecule: SILYMARIN

Activity [9]: 295%
Activity [10]: 251%
Molecule: O=C(CCc1ccc(O)cc1)c1c(O)cc(O)cc1O [PHLORETIN]

Activity [11]: 330%
Activity [12]: 178%
Molecule: COc1ccc(-c2coc3cc(O)cc(O)c3c2=O)cc1 [BIOCHANIN]
